Laboratory results from patent US10933077B2, “TLR4 inhibitors for the treatment of human infectious and inflammatory disorders” (UNIVERSITY OF PITTSBURGH—OF THE COMMONWEALTH SYSTEM OF …, priority 2010, dated 2021).

Key:
[1] = test system: LPS-induced NFkB activation; assay: NFkB-luciferase reporter mice assay (LPS-induced endotoxemia); format: in vivo; details: LPS 2 mg/kg plus compound 1 mg/kg i.p.
Experimental: Compound preparation and delivery. All 65 identified compounds were received in solid form and stored at 4° C. until use. Stock solutions of each compound were made by dissolving the appropriate amount of each compound in dimethyl sulfoxide (DMSO) to yield a concentration of 10 mM. Immediately prior to injection into experimental animals, the compounds were diluted to an experimental concentration of 100 uM in phosphate-buffered saline (PBS). Total concentration of DMSO in the final diluted drug was 1%. Compounds were closely examined to insure that no precipitate formed prior to injection and were stored on ice until injection. All compounds were given via intraperitoneal (i.p.) injection in a total volume of 200 ul using a 1 cc syringe and 27 gauge needle. In all experiments listed below, the compounds were delivered to the experimental mice 30 minutes prior to injection with lipopolysaccharide (LPS) to induce endotoxemia. Control animals not receiving compound received 1% DMSO dissolved in PBS. Following drug injection, the mice were observed closely in their cages for signs of immediate toxicity or adverse reaction to the drug, including but not limited to piloerection, tachypnea, bleeding, abnormal or aggressive behavior, signs of altered mental status, and level of activity.
Induction of endotoxemia. All mice were housed and cared for at the Rangos Research Center, Children's Hospital of Pittsburgh (Pittsburgh, Pa.). All experiments were approved by the Children's Hospital of Pittsburgh Animal Care Committee and by the Institutional Review Board of the University of Pittsburgh. Swiss Webster (CFW) and NFkB-luciferase reporter mice were obtained from The Jackson Laboratory. Throughout the course of all experiments, mice were housed 4 per cage with access to food, water, and standard bedding. Endotoxemia was induced in all experiments by i.p. injection of LPS (Escherichia coli 0111:B4 purified by gel filtration chromatography, >99% pure, Sigma-Aldrich) at a dose of 2 mg/kg for 6 hours. At the end of each experiment, all animals were euthanized by CO2 hypoxia and cervical dislocation.
NFkB-luciferase reporter mice assay. NFkB-luciferase reporter mice, in which the […], were subjected to endotoxemia with or without pretreatment with experimental compounds. The experimental compounds treated by this assay were compounds 1-6, with compounds 1-3 tested first and compounds 4-6 tested later. For both experiments, the mice were 6 weeks old on the date of the experiment. […] After whole body imaging, an additional injection of luciferin is given and animals were euthanized, organs were harvested, and the extent of NFkB activation within various tissues was further analyzed by an additional luminescence image of the individual organs. […]

[2] = test system: iNOS mRNA; assay: CFW-NEC mouse model (formula feeding), iNOS mRNA levels; format: in vivo; details: 1 mg/kg, i.p., once daily for the first four days of the five day model; relative to RPLO
Description: (§1) Inducible nitric oxide synthase (iNOS) is associated with necrotizing enterocolitis (NEC) in human infants. In a second set of experiments, the CFW-NEC mouse model system for NEC was used to evaluate the effect of various compounds from TABLES 1 and 2 above on iNOS mRNA levels. A model system for NEC was induced in newborn mouse pups by formula feeding, where control animals were breast-fed (Sodhi et al., 2010, Gastroenterol. 138(1):185-196; Richardson et al., 2010, Gastroenterol. 139(3):904-917). […] Note that RPLO stands for 505 ribosomal subunit protein L15, an acknowledged housekeeping gene, which means that it is a constitutive gene expressed at relatively constant levels by all cells and is thus used as a reference for comparing other genes which may vary under experimental conditions. In this same model system, levels of TLR4 mRNA levels were also evaluated. […] In contrast, the level of TLR4 was not increased in FF animals treated with C34 (1 mg/kg, i.p. once daily for the first four days of the five day model) and indeed mRNA levels were 30 percent below normal (see FIG. 14).

[3] = test system: TNFα mRNA; assay: Human NEC tissue explants treated with LPS, TNFα mRNA; format: cell-based; details: C34 10 uM, 30 minutes pretreatment; LPS 25 ug/ml, 37° C., 3 hours
Experimental: (§2) The effect of C34 was then tested on explants of human NEC tissue. These explants were obtained from human infants suffering from NEC and were prepared from NEC-affected portions of the intestine. When explants were treated with LPS (25 ug/ml, 37° C., 3 hours) the level of TNFα mRNA (FIG. 12) and iNOS mRNA (FIG. 13) increased precipitously.

[4] = test system: iNOS mRNA; assay: Human NEC tissue explants treated with LPS, iNOS mRNA; format: cell-based; details: C34 10 uM, 30 minutes pretreatment; LPS 25 ug/ml, 37° C., 3 hours
Experimental: as §2

[5] = Murine hemorrhagic shock (H/S) model, serum AST and ALT (liver damage); format: in vivo, mice; details: 1 mg/kg, i.p. divided in two doses (30 minutes prior to H/S and immediately prior to resuscitation); versus PBS
Experimental: An experiment was performed to test the effect of TLR4 inhibitors and C34 in particular on the tissue damage associated with hemmorhagic shock. A murine model was used in which, under sterile conditions and anesthesia induced using i.p. sodium pentobarbital (20 mg/kg), a left groin exploration was performed, and the left femoral artery was cannulated with tapered polyethylene (PE)-10 tubing and connected to a blood pressure transducer for continuous mean arterial pressure (MAP) monitoring for the duration of the experiment (6 h) as described in Sodhi, et al., 2011, Am. J. Physiol. Gastrointest. Liver Physiol. 300(5):G862-G873. To induce hemorrhagic shock, blood was withdrawn to allow the mean arterial pressure to drop to 25 mmHg over 5 minutes, and the blood pressure was maintained at this level for 150 min. The mice were then resuscitated over 10 min with lactated Ringer's solution. Sham-operated mice underwent anesthesia and femoral cannulation only. In this model system, the extent of liver damage is reflected in increased serum levels of aspartate aminotransferase (AST) and alanine transaminase (ALT).

[6] = test system: TLR4 mRNA; assay: CFW-NEC mouse model (formula feeding), TLR4 mRNA levels; format: in vivo; details: 1 mg/kg, i.p. once daily for the first four days of the five day model
Description: as §1

## CC(=O)NC1C(OC(C)C)OC(COC(C)=O)C(OC(C)=O)C1OC(C)=O (centres unmarked) [Compound 34, isopropyl 3,4,6-tri-O-acetyl-2-(acetylamino)-2-deoxyhexopyranoside]
[1]
  NFκB signalling (luciferase imaging): reduced NFκB signalling
[2]
  increase of iNOS mRNA level in formula-fed (FF) pups: almost eliminated
[3]
  LPS-induced increase of TNFα mRNA: substantially reduced
[4]
  LPS-induced increase of iNOS mRNA: substantially reduced
[5]
  increase in serum ALT in H/S animals: inhibited the increases
  increase in serum AST in H/S animals: inhibited the increases in AST
[6]
  level of TLR4 mRNA in FF animals: not increased
[6]; FF animals
  TLR4 mRNA levels below normal: 30%
